In patent US20130040898A1, “METHODS OF TREATMENT OF PATIENTS AT INCREASED RISK OF DEVELOPMENT OF ISCHEMIC EVENTS AND COMPOUNDS HEREOF” (priority 2010, published 2013):

What was measured:
[1] = depends on administration form and/or dosage; cited from earlier work
thrombus formation = experiment: Thrombus formation evaluated by viscoelastical haemostatic assay, thrombelastography (TEG); assay type: cell-based
From the text: FIG. 1: Recording haemostatic activity using TEG assay. […] Hereby, the effect on the endothelium of PGI2 can be employed in conjunction with treatment with antithrombotic agents such as Aspirin (ASA), platelet ADP—and a platelet inhibitor, such as GPIIb/IIIa receptor antagonists without increased risk of bleeding in this high-risk population.

[2] = test system: platelet aggregation in whole blood; experiment: Platelet aggregation in whole blood evaluated by Multiplate; assay type: cell-based
From the text: FIG. 2: MultiPlate continuously records platelet aggregation. The increase of impedance by the attachment of platelets onto the Multiplate sensors is transformed to arbitrary aggregation units (AU) and plotted against time. […] Hereby, the effect on the endothelium of PGI2 can be employed in conjunction with treatment with antithrombotic agents such as Aspirin (ASA), platelet ADP—and a platelet inhibitor, such as GPIIb/IIIa receptor antagonists without increased risk of bleeding in this high-risk population. The term “Mulitplate” refers to an applied platelet aggregometer/platelet function analyzer utilizing the analysis of whole blood. Whole blood is the physiological environment where platelet function takes place in vivo, and the use of whole blood for in-vitro testing eliminates the need for time-consuming centrifugation steps required for Born aggregation measurements. The use of a small amount of whole blood (0.3 ml per test) allows the differentiated assessment of platelet function without drawing large amounts of blood (as required for analysis of Born aggregation) and facilitates the analysis of blood from children and also in experimental settings.

| Structure (SMILES) | half time [1] [min] | effect on thrombus formation as evaluated by viscoelastical haemostatic assays such as thrombelastography (TEG) (thrombus formation) | effect on platelet aggregation in whole blood as evaluated by MULTIPLATE [2] |
| --- | --- | --- | --- |
| CC#CCC(C)[C@H](O)/C=C/[C@@H]1[C@H]2C/C(=C/CCCC(=O)O)C[C@H]2C[C@H]1O (some centres unmarked) [Iloprost] | 20 to 30 | – | – |
| CC#CCC(C)[C@H](O)/C=C/[C@@H]1[C@H]2c3cccc(CCCC(=O)O)c3O[C@H]2C[C@H]1O (mixture of isomers) [Beraprost] | 35 to 40 | – | – |
| CCCCC[C@H](O)/C=C/[C@@H]1[C@H]2C/C(=C/CCCC(=O)O)O[C@H]2C[C@H]1O [prostacyclin] | – | does not impair thrombus formation | does not affect platelet aggregation |
| CSCCNc1nc(SCCC(F)(F)F)nc2c1ncn2[C@@H]1O[C@H](COP(=O)(O)OP(=O)(O)C(Cl)(Cl)P(=O)(O)O)[C@@H](O)[C@H]1O [cangrelor] | 3 to 5 | – | – |
